Measured values published in patent US20230183239A1, “ECTONUCLEOTIDE PYROPHOSPHATASE-PHOSPHODIESTERASE 1 (ENPP-1) INHIBITORS AND USES THEREOF” (AbbVie Inc., priority 2017, published 2023).

Tests used:
Format in all cases: biochemical
ENPP1 [1] = target: T1, ENPP1 (Homo sapiens, UniProt P22413); experiment: ENPP1 enzyme assay with AMP-pNP substrate (hydrolysis of ATP analog); conditions: AMP-pNP substrate (ATP analog); Ki from IC50 by Cheng-Prusoff; read-out: ENPP1 Inhibition _AMP-pNP: Ki
T1 sequence (P22413 1-925): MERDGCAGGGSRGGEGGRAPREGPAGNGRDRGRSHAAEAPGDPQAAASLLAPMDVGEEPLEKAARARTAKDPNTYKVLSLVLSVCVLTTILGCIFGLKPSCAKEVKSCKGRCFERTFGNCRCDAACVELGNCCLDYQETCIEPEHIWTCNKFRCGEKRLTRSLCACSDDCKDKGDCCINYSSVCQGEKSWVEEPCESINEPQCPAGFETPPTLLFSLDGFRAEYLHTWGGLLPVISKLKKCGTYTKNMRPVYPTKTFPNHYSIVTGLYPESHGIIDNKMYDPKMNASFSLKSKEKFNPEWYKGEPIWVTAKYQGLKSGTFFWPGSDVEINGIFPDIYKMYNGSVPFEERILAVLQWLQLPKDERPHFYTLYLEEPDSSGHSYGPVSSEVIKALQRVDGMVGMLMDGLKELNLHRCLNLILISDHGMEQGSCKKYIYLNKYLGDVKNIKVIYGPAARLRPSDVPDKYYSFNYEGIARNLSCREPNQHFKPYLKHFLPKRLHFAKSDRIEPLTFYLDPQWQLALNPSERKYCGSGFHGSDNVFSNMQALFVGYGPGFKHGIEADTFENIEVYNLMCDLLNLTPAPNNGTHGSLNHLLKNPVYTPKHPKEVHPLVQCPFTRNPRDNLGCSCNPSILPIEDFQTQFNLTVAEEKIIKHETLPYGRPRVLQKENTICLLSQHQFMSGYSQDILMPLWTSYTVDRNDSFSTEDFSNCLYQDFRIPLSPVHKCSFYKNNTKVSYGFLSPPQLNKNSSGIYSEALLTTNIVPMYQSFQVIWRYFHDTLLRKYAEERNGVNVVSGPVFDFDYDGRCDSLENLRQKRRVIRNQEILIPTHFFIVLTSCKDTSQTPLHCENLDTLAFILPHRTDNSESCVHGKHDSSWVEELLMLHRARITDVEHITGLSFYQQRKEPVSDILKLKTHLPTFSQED
Description: The ENPP1 assay with AMP-pNP substrate is conducted in a buffer containing 50 mM Tris-HCl (pH 8.5)/ 250 mM NaCl/0.5 mM CaCl2/1 µM ZnCl2/0.1% DMSO. Inhibitors are added at final concentrations ranging between 10 µM and 30 pM depending on the compound. Duplicate wells are run at each inhibitor concentration. The final assay volume is 40 µL and human recombinant ENPP1 is present at 60 ng/well. The assay is initiated by the addition of substrate (300 µM AMP-pNP final concentration), and incubated for 20 minutes at 37° C. […] Each assay plate also includes wells with no enzyme added (MIN OD) and wells with no inhibitor added (MAX OD). The percent inhibition of ENPP1 for each sample is then calculated as: […]
IC50 values of compounds were calculated by entering the percent inhibition values into a sigmoidal variable slope nonlinear regression model in GraphPad Prism® software.

ENPP1 [2] = target: T1, ENPP1; experiment: Indirect quantitation of 2',3'-cGAMP hydrolysis (AMP-Glo Assay kit); conditions: cGAMP substrate; Ki from IC50 by Cheng-Prusoff; read-out: ENPP1 Inhibition -cGAMP: Ki
ENPP1 [3] = target: T1, ENPP1; experiment: Substrate selectivity ratio, inhibition of cGAMP hydrolysis versus ATP hydrolysis; conditions: ratio Ki AMP-pNP / Ki cGAMP
Description: The selectivity ratios for inhibition of cGAMP hydrolysis versus ATP hydrolysis were then calculated as follows: […]

| Ki (ENPP1 [1]) [nM] | Ki (ENPP1 [2]) [nM] | Substrate Selectivity: Ki_AMP-pNP/Ki_cGAMP (ENPP1 [3]) | SMILES |
| --- | --- | --- | --- |
| 100 to 1000 | < 100 | 28.4 | COc1ccc2c(Oc3ccc(NS(N)(=O)=O)c(C)c3)ccnc2c1 [Example 308, N-(4-((7-methoxyquinolin-4-yl)oxy)-2-methylphenyl)sulfamide] |
| < 100 | < 100 | 71.2 | COc1ccc2c(NCc3ccc(S(N)(=O)=O)cc3)ncnc2c1 [Example 230, 4-(((7-methoxyquinazolin-4-yl)amino)methyl)benzene sulfonamide] |
| > 1000 | < 100 | > 31.4 | COc1cc2ncnc(NC(C)c3ccc(NS(N)(=O)=O)cc3)c2cc1OC (stereo in doubt) [Example 254, (S)-N-(4-(1-((6,7-dimethoxyquinazolin-4-yl)amino)ethyl)phenyl)sulfamide] |
| 100 to 1000 | < 100 | 40 | COc1ccc2c(Oc3ccc(S(N)(=O)=O)cc3)ncnc2c1 [Example 356, 4-((7-methoxyquinazolin-4-yl)oxy)benzene sulfonamide] |
| > 1000 | < 100 | 36 | COc1ccc2c(-c3ccc(CNS(N)(=O)=O)cn3)ccnc2c1 [Example 387, ((6-(7-methoxy quinolin-4-yl)pyridin-3-yl)methyl)sulfamide] |
| > 1000 | 100 to 1000 | > 126 | COc1cc2nccc(N3CCCc4cc(NS(N)(=O)=O)ccc43)c2cc1OC [Example 291, N-(6′,7′-dimethoxy-3,4-dihydro-2H-[1,4′-biquinolin]-6-yl)sulfamide] |
| > 1000 | < 100 | >38.8 | COc1cc2nccc(-n3ccc4cc(NS(N)(=O)=O)ccc43)c2cc1OC [Example 313, N-(1-(6,7-dimethoxyquinolin-4-yl)-1H-indol-5-yl)sulfamide] |
| > 1000 | 100 to 1000 | >28.0 | COc1ccc2ncnc(-c3ccc(CNS(N)(=O)=O)cc3)c2c1 [Example 264, N-(4-(6-methoxyquinazolin-4-yl)benzyl)sulfamide] |
| > 1000 | 100 to 1000 | >16.2 | COc1cc2nccc(Oc3cc(F)c(NS(N)(=O)=O)c(F)c3)c2cc1OC [Example 271, N-(4-((6,7-dimethoxyquinolin-4-yl)oxy)-2,6-difluorophenyl)sulfamide] |
| > 1000 | 100 to 1000 | >77 | COc1ccc2c(N3CCc4cc(NS(N)(=O)=O)ccc43)ccnc2c1F [Example 376, N-(1-(8-fluoro-7-methoxyquinolin-4-yl)indolin-5-yl)sulfamide] |
| > 1000 | < 100 | >138 | COc1ccc2c(-c3ccc(CNS(N)(=O)=O)c(C)c3)ccnc2c1 [Example 374, N-(4-(7-methoxyquinolin-4-yl)-2-methylbenzyl) sulfamide] |
| < 100 | < 100 | 34 | COc1ccc2c(-c3ccc(CNS(N)(=O)=O)s3)ccnc2c1 [Example 389, N-((5-(7-methoxyquinolin-4-yl)thiophen-2-yl)methyl)sulfamide] |
| 100 to 1000 | < 100 | >99.7 | COc1ccc2ncc(C#N)c(N3CCC4(CC3)CCN(S(N)(=O)=O)C4)c2c1 [Example 238, 8-(3-cyano-6-methoxyquinolin-4-yl)-2,8-diazaspiro[4.5]decane-2-sulfonamide] |

The next lines start with the compound.

| SMILES | Ki (ENPP1 [1]) [nM] | Ki (ENPP1 [2]) [nM] | Substrate Selectivity: Ki_AMP-pNP/Ki_cGAMP (ENPP1 [3]) |
| --- | --- | --- | --- |
| COc1ccc2c(Oc3ccc(NS(N)(=O)=O)cc3)ccnc2n1 [Example 73, N-(4-((7-methoxy-1,8-naphthyridin-4-yl)oxy)phenyl)sulfamide] | < 100 | < 100 | 24.2 |
| COc1ccc2c(N3CCC(CCNS(N)(=O)=O)CC3)ncnc2c1 [Example 198, N-(2-(1-(7-methoxyquinazolin-4-yl)piperidin-4-yl)ethyl)sulfamide] | 100 to 1000 | < 100 | 39.2 |
| COc1cc2nccc(N3CCC(CCNS(=O)(=O)N4CCOCC4)CC3)c2cc1OC [Example 147, N-(2-(1-(6,7-dimethoxyquinolin-4-yl)piperidin-4-yl)ethyl)morpholine-4-sulfonamide] | > 1000 | 100 to 1000 | >117 |
| COc1cc2ncnc(NCCc3ccc(NS(N)(=O)=O)cc3)c2cc1OC [Example 156, N-(4-(2-((6,7-dimethoxyquinazolin-4-yl)amino)ethyl)phenyl) sulfamide] | 100 to 1000 | < 100 | 23.3 |
| NS(=O)(=O)N1CCC2(CCN(c3ncnc4ccccc34)CC2)C1 [Example 158, 8-(quinazolin-4-yl)-2,8-diazaspiro [4.5] decane-2-sulfonamide] | 100 to 1000 | < 100 | 16.3 |
| COc1cc2nccc(OCc3ccc(NS(N)(=O)=O)cc3)c2cc1OC [Example 191, N-(4-(((6,7-dimethoxyquinolin-4-yl)oxy)methyl)phenyl) sulfamide] | > 1000 | 100 to 1000 | > 25.0 |
| COc1ccc2c(Oc3ccc(NS(N)(=O)=O)cc3)ncnc2n1 [Example 227, N-(4-((7-methoxypyrido[2,3-d]pyrimidin-4-yl)oxy)phenyl)sulfamide] | 100 to 1000 | < 100 | 51.9 |
| COc1cc2ncnc(-c3ccc4c(c3)CC(NS(N)(=O)=O)C4)c2cc1OC (stereo not drawn) [Example 122, N-(5-(6,7-dimethoxyquinazolin-4-yl)-2,3-dihydro-1H-inden-2-yl)sulfamide] | 100 to 1000 | < 100 | 21.9 |
| COc1cc2nccc(-c3ccc(CN(C)S(N)(=O)=O)cc3)c2cc1OC [Example 61, N-(4-(6,7-dimethoxyquinolin-4-yl)benzyl)-N-methylsulfamide] | < 100 | < 100 | 23.7 |
| COc1cc2ncc(C#N)c(-c3ccc4c(c3)CN(S(N)(=O)=O)CC4)c2cc1OC [Example 149, 7-(3-cyano-6,7-dimethoxyquinolin-4-yl)-3,4-dihydroisoquinoline-2(1H)-sulfonamide] | < 100 | < 100 | 12.2 |
| COc1ccc2c(Oc3ccc(NS(N)(=O)=O)c(Cl)c3)ccnc2c1 [Example 75, N-(2-chloro-4-((7-methoxyquinolin-4-yl)oxy)phenyl)sulfamide] | 100 to 1000 | < 100 | 41.3 |
| COc1cc2nccc(N3CCC(CCNS(N)(=O)=O)CC3)c2cn1 [Example 204, N-(2-(1-(7-methoxy-1,6-naphthyridin-4-yl)piperidin-4-yl)ethyl)sulfamide] | > 1000 | 100 to 1000 | > 39.4 |
| COc1cc2ncc(C#N)c(Nc3ccc(NS(N)(=O)=O)cc3)c2cc1OC [Example 175, N-(4-((3-cyano-6,7-dimethoxyquinolin-4-yl)amino)phenyl)sulfamide] | > 1000 | < 100 | >63.3 |
| COc1cc2nccc(NCc3ccc(S(N)(=O)=O)cc3)c2cc1F [Example 56, 4-(((6-fluoro-7-methoxyquinolin-4-,yl)amino)methyl)benzenesulfonamide] | < 100 | < 100 | 6.3 |
